Measured values published in ChEMBL document CHEMBL5634117 (Eur J Med Chem, 2023).

Legend:
[1] = test system: SK-MEL-28; test: Growth inhibition of human SK-MEL-28 cells assessed as reduction in cell viability measured after 48 hrs by SRB assay; format: functional
[2] = test system: MDA-MB-468; test: Growth inhibition of human MDA-MB-468 cells assessed as reduction in cell viability measured after 48 hrs by SRB assay; format: functional
[3] = test system: NCI-H322M; test: Growth inhibition of human NCI-H322M cells assessed as reduction in cell viability measured after 48 hrs by SRB assay; format: functional
[4] = test system: SF-539; test: Growth inhibition of human SF-539 cells assessed as reduction in cell viability measured after 48 hrs by SRB assay; format: functional
[5] = test system: NCI/ADR-RES; test: Growth inhibition of human NCI/ADR-RES cells assessed as reduction in cell viability measured after 48 hrs by SRB assay; format: functional
[6] = test system: M14; test: Growth inhibition of human M14 cells assessed as reduction in cell viability measured after 48 hrs by SRB assay; format: functional
[7] = test system: ACHN; test: Growth inhibition of human ACHN cells assessed as reduction in cell viability measured after 48 hrs by SRB assay; format: functional
[8] = test system: NCI-H460; test: Growth inhibition of human NCI-H460 cells assessed as reduction in cell viability measured after 48 hrs by SRB assay; format: functional
[9] = test system: BT-549; test: Growth inhibition of human BT-549 cells assessed as reduction in cell viability measured after 48 hrs by SRB assay; format: functional
[10] = test system: NCI-H522; test: Growth inhibition of human NCI-H522 cells assessed as reduction in cell viability measured after 48 hrs by SRB assay; format: functional
[11] = test system: SNB-19; test: Growth inhibition of human SNB-19 cells assessed as reduction in cell viability measured after 48 hrs by SRB assay; format: functional
[12] = test system: NCI-H23; test: Growth inhibition of human NCI-H23 cells assessed as reduction in cell viability measured after 48 hrs by SRB assay; format: functional
[13] = test system: KM12; test: Growth inhibition of human KM12 cells assessed as reduction in cell viability measured after 48 hrs by SRB assay; format: functional
[14] = test system: HL-60(TB); test: Growth inhibition of human HL-60(TB) cells assessed as reduction in cell viability measured after 48 hrs by SRB assay; format: functional
[15] = test system: PC-3; test: Growth inhibition of human PC-3 cells assessed as reduction in cell viability measured after 48 hrs by SRB assay; format: functional
[16] = test system: T47D; test: Growth inhibition of human T47D cells assessed as reduction in cell viability measured after 48 hrs by SRB assay; format: functional
[17] = test system: LOX IMVI; test: Growth inhibition of human LOX IMVI cells assessed as reduction in cell viability measured after 48 hrs by SRB assay; format: functional
[18] = test system: UO-31; test: Growth inhibition of human UO-31 cells assessed as reduction in cell viability measured after 48 hrs by SRB assay; format: functional
[19] = test system: U-251; test: Growth inhibition of human U-251 cells assessed as reduction in cell viability measured after 48 hrs by SRB assay; format: functional
[20] = test system: OVCAR-4; test: Growth inhibition of human OVCAR-4 cells assessed as reduction in cell viability measured after 48 hrs by SRB assay; format: functional
[21] = test system: A498; test: Growth inhibition of human A498 cells assessed as reduction in cell viability measured after 48 hrs by SRB assay; format: functional
[22] = molecular target: Mitogen-activated protein kinase 10 (Homo sapiens, UniProt P53779); test: Inhibition of human JNK3 at 10 uM in presence of ATP relative to control
Sequence of Mitogen-activated protein kinase 10 (P53779 whole entry): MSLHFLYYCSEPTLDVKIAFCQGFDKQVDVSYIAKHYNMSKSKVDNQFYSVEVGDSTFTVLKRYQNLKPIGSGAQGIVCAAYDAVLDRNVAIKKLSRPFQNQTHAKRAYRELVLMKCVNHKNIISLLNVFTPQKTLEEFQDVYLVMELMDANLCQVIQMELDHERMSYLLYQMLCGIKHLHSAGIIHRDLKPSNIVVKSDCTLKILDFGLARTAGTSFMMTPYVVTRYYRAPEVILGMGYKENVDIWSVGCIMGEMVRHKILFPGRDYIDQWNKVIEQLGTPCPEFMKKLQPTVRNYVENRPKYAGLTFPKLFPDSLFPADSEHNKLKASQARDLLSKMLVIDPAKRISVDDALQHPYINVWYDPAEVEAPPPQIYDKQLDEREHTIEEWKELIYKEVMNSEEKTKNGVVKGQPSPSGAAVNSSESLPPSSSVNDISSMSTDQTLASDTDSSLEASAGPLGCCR

[23] = test system: MCF7; test: Growth inhibition of human MCF7 cells assessed as reduction in cell viability measured after 48 hrs by SRB assay; format: functional
[24] = test system: OVCAR-3; test: Growth inhibition of human OVCAR-3 cells assessed as reduction in cell viability measured after 48 hrs by SRB assay; format: functional
[25] = test system: UACC-62; test: Growth inhibition of human UACC-62 cells assessed as reduction in cell viability measured after 48 hrs by SRB assay; format: functional
[26] = test system: HCT-116; test: Growth inhibition of human HCT-116 cells assessed as reduction in cell viability measured after 48 hrs by SRB assay; format: functional
[27] = test system: MOLT-4; test: Growth inhibition of human MOLT-4 cells assessed as reduction in cell viability measured after 48 hrs by SRB assay; format: functional
[28] = test system: Malme-3M; test: Growth inhibition of human Malme-3M cells assessed as reduction in cell viability measured after 48 hrs by SRB assay; format: functional
[29] = test system: TK-10; test: Growth inhibition of human TK-10 cells assessed as reduction in cell viability measured after 48 hrs by SRB assay; format: functional
[30] = test system: CCRF-CEM; test: Growth inhibition of human CCRF-CEM cells assessed as reduction in cell viability measured after 48 hrs by SRB assay; format: functional
[31] = test system: SW-620; test: Growth inhibition of human SW620 cells assessed as reduction in cell viability measured after 48 hrs by SRB assay; format: functional
[32] = test system: SR; test: Growth inhibition of human SR cells assessed as reduction in cell viability measured after 48 hrs by SRB assay; format: functional
[33] = test system: 786-0; test: Growth inhibition of human 786-0 cells assessed as reduction in cell viability measured after 48 hrs by SRB assay; format: functional
[34] = test system: HCT-15; test: Growth inhibition of human HCT-15 cells assessed as reduction in cell viability measured after 48 hrs by SRB assay; format: functional
[35] = test system: SK-MEL-2; test: Growth inhibition of human SK-MEL-2 cells assessed as reduction in cell viability measured after 48 hrs by SRB assay; format: functional
[36] = test system: COLO 205; test: Growth inhibition of human COLO 205 cells assessed as reduction in cell viability measured after 48 hrs by SRB assay; format: functional
[37] = test system: SN12C; test: Growth inhibition of human SN12C cells assessed as reduction in cell viability measured after 48 hrs by SRB assay; format: functional
[38] = test system: HT-29; test: Growth inhibition of human HT-29 cells assessed as reduction in cell viability measured after 48 hrs by SRB assay; format: functional
[39] = test system: DU-145; test: Growth inhibition of human DU-145 cells assessed as reduction in cell viability measured after 48 hrs by SRB assay; format: functional
[40] = test system: OVCAR-8; test: Growth inhibition of human OVCAR-8 cells assessed as reduction in cell viability measured after 48 hrs by SRB assay; format: functional
[41] = test system: NCI-H226; test: Growth inhibition of human NCI-H226 cells assessed as reduction in cell viability measured after 48 hrs by SRB assay; format: functional
[42] = test system: HOP-62; test: Growth inhibition of human HOP-62 cells assessed as reduction in cell viability measured after 48 hrs by SRB assay; format: functional
[43] = test system: SNB-75; test: Growth inhibition of human SNB-75 cells assessed as reduction in cell viability measured after 48 hrs by SRB assay; format: functional
[44] = test system: CAKI-1; test: Growth inhibition of human CAKI-1 cells assessed as reduction in cell viability measured after 48 hrs by SRB assay; format: functional
[45] = test system: IGROV-1; test: Growth inhibition of human IGROV-1 cells assessed as reduction in cell viability measured after 48 hrs by SRB assay; format: functional
[46] = test system: SF-295; test: Growth inhibition of human SF-295 cells assessed as reduction in cell viability measured after 48 hrs by SRB assay; format: functional

Compound: CC(C)(C)n1cc(-c2ccnc(NCCCNS(=O)(=O)c3ccc(Br)cc3)c2)c(-c2cccc(O)c2)n1
- GI50 [1]: 1790 nM
- GI50 [2]: 2100 nM
- GI50 [3]: 2310 nM
- GI50 [4]: 1700 nM
- GI50 [5]: 2210 nM
- GI50 [6]: 1780 nM
- GI50 [7]: 1990 nM
- GI50 [8]: 1990 nM
- GI50 [9]: 1500 nM
- GI50 [10]: 2130 nM
- GI50 [11]: 2110 nM
- GI50 [12]: 1830 nM
- GI50 [13]: 2110 nM
- GI50 [14]: 2720 nM
- GI50 [15]: 1600 nM
- GI50 [16]: 2480 nM
- GI50 [17]: 1770 nM
- GI50 [18]: 1660 nM
- GI50 [19]: 1650 nM
- GI50 [20]: 1910 nM
- GI50 [21]: 1330 nM
- inhibition [22]: 99.2%
- GI50 [23]: 1880 nM
- GI50 [24]: 2150 nM
- GI50 [25]: 1590 nM
- GI50 [26]: 1310 nM
- GI50 [27]: 2300 nM
- GI50 [28]: 1670 nM
- GI50 [29]: 2510 nM
- GI50 [30]: 2260 nM
- GI50 [31]: 1830 nM
- GI50 [32]: 2000 nM
- GI50 [33]: 1660 nM
- GI50 [34]: 1480 nM
- GI50 [35]: 2130 nM
- GI50 [36]: 1850 nM
- GI50 [37]: 1610 nM
- GI50 [38]: 1420 nM
- GI50 [39]: 2100 nM
- GI50 [40]: 2430 nM
- GI50 [41]: 2310 nM
- GI50 [42]: 2050 nM
- GI50 [43]: 1760 nM
- GI50 [44]: 2160 nM
- GI50 [45]: 1910 nM
- GI50 [46]: 1710 nM

Compound: CC(C)(C)n1cc(-c2ccnc(NCCCNS(=O)(=O)c3ccc(C(F)(F)F)cc3)c2)c(-c2cccc(O)c2)n1
- GI50 [1]: 1750 nM
- GI50 [2]: 1880 nM
- GI50 [3]: 2070 nM
- GI50 [4]: 1650 nM
- GI50 [5]: 2070 nM
- GI50 [6]: 2000 nM
- GI50 [7]: 1880 nM
- GI50 [8]: 1860 nM
- GI50 [9]: 1610 nM
- GI50 [10]: 1990 nM
- GI50 [11]: 1980 nM
- GI50 [12]: 1670 nM
- GI50 [13]: 2150 nM
- GI50 [14]: 2810 nM
- GI50 [15]: 1640 nM
- GI50 [16]: 2240 nM
- GI50 [17]: 1720 nM
- GI50 [18]: 1580 nM
- GI50 [19]: 1710 nM
- GI50 [20]: 2290 nM
- GI50 [21]: 1540 nM
- inhibition [22]: 98.6%
- GI50 [23]: 1780 nM
- GI50 [24]: 1960 nM
- GI50 [25]: 1690 nM
- GI50 [26]: 1550 nM
- GI50 [27]: 2330 nM
- GI50 [28]: 1720 nM
- GI50 [29]: 2310 nM
- GI50 [30]: 2980 nM
- GI50 [31]: 1890 nM
- GI50 [32]: 2210 nM
- GI50 [33]: 1800 nM
- GI50 [34]: 1470 nM
- GI50 [35]: 2100 nM
- GI50 [36]: 1950 nM
- GI50 [37]: 1610 nM
- GI50 [38]: 1450 nM
- GI50 [39]: 1940 nM
- GI50 [40]: 2460 nM
- GI50 [41]: 2350 nM
- GI50 [42]: 1930 nM
- GI50 [43]: 1940 nM
- GI50 [44]: 1990 nM
- GI50 [45]: 1800 nM
- GI50 [46]: 1690 nM
